Values joined by “and” are separate entries in the source; they are usually repeats but may differ in a detail not shown here. Equal values may be shown once. “Also recorded” adds a separate entry of the source.
Legend:
[1] = tested on: PGE2 production (COX-2 activity); experiment: PGE2 production in RIN m5F cells (RIA of conditioned medium); type: cell-based, rat; settings: for PGE2 production in conditioned medium: 24 hours after addition of agent
Protocol: (§1) RIN m5F cells were cultured to near confluence in RPMi-1640 medium (Life Technologies, Inc., Grand Island, N.Y.) plus 10% FCS plus 1% HEPES and penicillin/streptomycin. Prior to addition of IL-1β the cells were depleted in RPMI-1640 medium plus 0.2% BSA for 24 hours. The cells were gently washed in PBS and depletion medium was added back. At this time CDC (Biomol Research Lab, Inc., Plymouth Meeting, PA) (1-10 μM) was added in certain experiments 60 minutes prior to IL-1β addition. 12-HETE (1-100 nM) and 15-HETE (1-100 nM) (Biomol Research Lab, Inc., Plymouth Meeting, Pa.) were added to certain experiments in 0.1% ethanol. The cells were cultured for an additional 24 hours at which time medium was collected for PGE2 assay. For mRNA experiments, total RNA was extracted from RIN m5F cells 3 hours after the addition of IL-1 β, 12-HETE, or 15-HETE. 12HETE and 15-HETE were stored at −70 C. in the dark and added to cell culture dishes in the dark. Control experiments included the addition of 0.1% ethanol alone to RIN m5F cell cultures.
In addition, PGE2 production was measured under the same conditions, but over a 24 hour period. COX-2 activity was determined by measuring the accumulation of PGE2 in the conditioned media. Cells were cultured in 24 well plates for 24 hours and subject to the experimental conditions described above. PGE2 was measured in conditioned medium using a commercial RIA kit. Statistical analysis of PGE2 levels was performed using the Student's t-test with GraphPad Prism™ software (GraphPad Software, Inc, San Diego, Calif.).

COX-2 mRNA = experiment: Semi-quantitative RT-PCR of COX-2 gene expression in RIN m5F cells; type: cell-based, rat; settings: IL-1β 0.3 ng/ml, HETEs 1-100 nM
Protocol: as §1
(§2) RIN m5F cells were cultured as set forth in Example 1, in the presence or absence of IL-1β (0.3 ng/ml), 12-S-HETE (1-100 nM), or 15-S-HETE (1-100 nM) for […]. Total RNA was extracted and semiquantitative RT-PCR was performed using COX-2 specific primers.
Total RNA was extracted from RIN m5F cells with RNA STAT-60 (Tel-Test, Inc., Friendswood, Tex.). RNA (1 μg) was diluted in 12.5 μl DEPC-H20 and reverse transcribed with the 1st-Strand™ cDNA Synthesis Kit (CLONTECH laboratories, Inc., Palo Alto, Calif.), using oligo dT primers, recombinant RNase inhibitor, and MMLV reverse transcriptase to generate template cDNA for PCR amplification. Each PCR reaction was done on RNA from one 100 mm culture dish for the stated experimental conditions. Twenty picomoles of each primer (shown below) was mixed with 1 unit of Taq gold polymerase (Perkin Elmer, Inc.) in 50 μl final volume. Samples were amplified with an initial 45 second denaturation step at 94° C. followed by 25 cycles of 45 seconds at 60° C., and 25 cycles of 2 minutes at 72° C.. The last cycle was extended for an additional 7 minutes at 72° C. PCR cycling was done with a Gene Amp PCR System 2400 (Perkin Elmer/Cetus Corp., Norwalk, Conn.). DNA primers were synthesized in the DNA/RNA Core Chemistry Laboratory at City of Hope National Medical Center. The sequences of the primers are shown below.
PCR products were analyzed by electrophoresis with 1.8% agarose gel. The DNA was transferred to nylon membranes and hybridized sequentially to ^32P-labeled probes for COX-1, COX-2, and GAPDH using a random Primed DNA labeling kit (Boehringer Mannheim). GAPDH was used as an internal control. Hybridization and autoradiography were performed according to previously published methods.

COX-2 protein [2] = experiment: Western immunoblot of COX-2 protein expression in RIN m5F cells; type: cell-based, rat; settings: 24 hours, 12-HETE 1-10 nM; for increase in COX-2 protein: IL-1β 0.3 ng/ml
Protocol: as §1
This Example investigates the mechanism(s) of this resistance. RIN m5F cells, cultured as set forth in Example 1, were stimulated with IL-1β and 12-HETE and total protein extracts were used for Western immunoblotting with an anti-COX-2 antibody.
The RIN m5F cells (−300 per blot) were lysed in a 1% Triton-0.1% SDS buffer in normal saline (pH 7.4) with 10 mM HEPES plus 1 mM EDTA and standard protease inhibitors. Cell lysates were centrifuged at 14,000×9 for 10 minutes and a modified BCA protein assay was performed. Protein aliquots (50 μg per sample) were treated with Laemmeli sample buffer and then heated to 100° C. for 5 minutes. Proteins were separated on 10% SDS-PAGE and transferred to polyvinylidene difluoride membranes (Immobilon-P) in 10 mM CAPS buffer, 10% methanol at pH 11. The immunoblots were blocked overnight in 5% nonfat dried milk in Tris buffer containing 0.1% Tween-20. […]

PGE2 production = PGE2 production in islets from C57BL/6 and 12-LO knockout mice; type: cell-based, mouse; settings: for PGE2 generated by IL-1β stimulated islets: 24 hours
Protocol: Generation of 12-LO knockout has been previously described. All animal studies were performed in accordance with guidelines set forth by the Research Animal Care Committee of City of Hope National Medical Center. Islet isolation and culturing techniques have been detailed previously. Briefly, mouse pancreas was removed, minced, and poured into a siliconized 25 ml Ehrlenmeyer flask with Type Xl collagenase solution (Sigma Chemical Co, St. Louis, Mo.). The pancreatic digest was incubated in a shaker-type water bath at 37 C. for 6-10 minutes. The digest was centrifuged, poured into a black back petri dish, and islets were picked by hand under a microscope. The islets were aliquoted into sterile 6-well plates (Sarstedt, Newton, N.C.) and cultured in RPMI 1640 medium containing 11 mM glucose and supplemented with 10% FCS and 1% HEPES. Typically, we isolate −75-100 islets per mouse. For PGE2 experiments, 100 islets per well in 300 μl RPMI medium were cultured overnight prior to additions. The following morning the medium was changed to RPMI 1640 medium plus 0.2% BSA and the islets were allowed to equilibrate for one hour. Then, IL-1β (R & D Systems, Minneapolis, Minn.) was added to the appropriate experiments. All islet experiments were run in triplicate and repeated three times for reproducibility.
Isolated islets (100 per experiment) were brought to culture and incubated overnight as described. After approximately 18 hours IL-1β was added to the medium and the islets were incubated for an additional 24 hours. PGE2 production was measured as set forth in Example 3.

COX-2 protein [3] = experiment: Western immunoblot of COX-2 protein in cultured intact porcine pancreatic islets; type: cell-based; settings: 24 hours
Protocol: The RIN m5F cells (−300 per blot) were lysed in a 1% Triton-0.1% SDS buffer in normal saline (pH 7.4) with 10 mM HEPES plus 1 mM EDTA and standard protease inhibitors. Cell lysates were centrifuged at 14,000×9 for 10 minutes and a modified BCA protein assay was performed. Protein aliquots (50 μg per sample) were treated with Laemmeli sample buffer and then heated to 100° C. for 5 minutes. Proteins were separated on 10% SDS-PAGE and transferred to polyvinylidene difluoride membranes (Immobilon-P) in 10 mM CAPS buffer, 10% methanol at pH 11. The immunoblots were blocked overnight in 5% nonfat dried milk in Tris buffer containing 0.1% Tween-20. The blots were incubated for 2 hours at room temperature with anti COX-2 antibodies (Cayman Chemical Co., Ann Arbor, Mich.) diluted 1:2000 in the same Tris buffer without nonfat dried milk. The blots were washed and then incubated with horseradish peroxidase conjugated secondary antibodies at 1:2000 dilution. The protein bands were visualized with enhanced chemiluminescence reagents using X-AR film.
Next, Western immunoblots were performed on protein extracts from porcine islets treated in a similar fashion with IL-1β and lysed as set forth about for RIN m5F cells. Because of the concern that 12-HETE would not permeate the islet mass, the 12-LO inhibitor CDC (1 μM) was used instead with or without the addition of IL-1β, in order to determine the role of the 12-LO pathway on COX-2 protein expression.

COX-1 mRNA = experiment: Semi-quantitative RT-PCR of COX-1 gene expression in RIN m5F cells; type: cell-based, rat; settings: same experiments as COX-2 mRNA
Protocol: as §1, §2
Total RNA was extracted from RIN m5F cells with RNA STAT-60 (Tel-Test, Inc., Friendswood, Tex.). RNA (1 μg) was diluted in 12.5 μl DEPC-H20 and reverse transcribed with the 1st-Strand™ cDNA Synthesis Kit (CLONTECH laboratories, Inc., Palo Alto, Calif.), using oligo dT primers, recombinant RNase inhibitor, and MMLV reverse transcriptase to generate template cDNA for PCR amplification. Each PCR reaction was done on RNA from one 100 mm culture dish for the stated experimental conditions. Twenty picomoles of each primer (shown below) was mixed with 1 unit of Taq gold polymerase (Perkin Elmer, Inc.) in 50 μl final volume. […]
PCR products were analyzed by electrophoresis with 1.8% agarose gel. […]

[4] = tested on: leukocyte influx and prostaglandin synthesis; settings: oral, 3 mg/kg, over a 24 hour period; cited from earlier work
HIT cells = HIT cells treated with IL-1β for 24 hours; cited from earlier work
5-lipoxygenase = molecular target: T1, 5-lipoxygenase (Homo sapiens, UniProt P09917); settings: cited from earlier work
T1 sequence (P09917 1-674): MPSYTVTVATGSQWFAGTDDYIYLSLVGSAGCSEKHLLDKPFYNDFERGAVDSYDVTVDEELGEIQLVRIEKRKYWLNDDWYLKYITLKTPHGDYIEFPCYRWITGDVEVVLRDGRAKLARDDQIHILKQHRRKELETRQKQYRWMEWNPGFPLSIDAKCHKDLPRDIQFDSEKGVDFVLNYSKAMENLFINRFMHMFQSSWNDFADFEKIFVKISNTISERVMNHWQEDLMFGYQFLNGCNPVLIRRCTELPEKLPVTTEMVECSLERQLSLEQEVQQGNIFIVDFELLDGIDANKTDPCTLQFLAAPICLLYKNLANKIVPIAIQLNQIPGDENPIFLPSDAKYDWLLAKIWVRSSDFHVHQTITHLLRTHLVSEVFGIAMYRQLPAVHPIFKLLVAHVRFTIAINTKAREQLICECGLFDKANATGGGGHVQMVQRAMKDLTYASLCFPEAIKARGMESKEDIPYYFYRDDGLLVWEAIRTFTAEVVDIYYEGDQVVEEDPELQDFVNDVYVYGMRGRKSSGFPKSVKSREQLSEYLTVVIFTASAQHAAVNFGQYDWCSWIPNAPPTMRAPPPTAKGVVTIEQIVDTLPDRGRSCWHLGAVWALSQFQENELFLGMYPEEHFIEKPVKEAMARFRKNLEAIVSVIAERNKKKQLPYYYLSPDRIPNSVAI

12-lipoxygenase = settings: cited from earlier work
15-lipoxygenase = settings: cited from earlier work
prostaglandin synthesis = settings: 10-100 mg/kg; cited from earlier work
COX-2 gene transcription = settings: higher concentrations; cited from earlier work

CCCCC[C@H](O)/C=C/C=C\C/C=C\C/C=C\CCCC(=O)O [15-HETE, 15-hydroxyeicosatetraenoic acid, reference compound]
PGE2 production in conditioned medium [1]: ~125 pg/mL
increase in COX-2 mRNA expression (COX-2 mRNA): 1.5 fold

interleukin-1β [IL-1β]
PGE2 production in conditioned medium [1]: ~500 pg/ml and 388+27 pg/ml
increase in COX-2 mRNA expression (COX-2 mRNA): 2 fold
increase in COX-2 mRNA expression (COX-2 mRNA; listed as IL-1 β): 2 fold and 1.5 fold
increase in COX-2 protein (COX-2 protein [2]): 2.5 fold
PGE2 production upon stimulation with IL-1β (words) (PGE2 production; 12-LO knockout mouse islets): fail to stimulate prostaglandin E2 production
PGE2 generated by IL-1β stimulated islets (PGE2 production; 12-LO knockout mouse islets): 78+15 pg/ml
PGE2 production upon stimulation with IL-1β (words) (PGE2 production; 12-LO knockout mouse islets, listed as IL-1 β): no appreciable PGE2 production
increase in PGE2 production with IL-1β stimulation (PGE2 production; C57BL/6 mouse islets): 8 fold and 7 fold
PGE2 generated by IL-1β stimulated islets (PGE2 production; C57BL/6 mouse islets): 5405+1012 pg/ml
increase in COX-2 protein (COX-2 protein [3]; IL-1β 0.3 ng/ml): 3 fold
COX-1 mRNA expression / gene transcription (COX-1 mRNA): neither IL-1β,nor 12-HETE stimulated
COX-1 mRNA expression / gene transcription (COX-1 mRNA; listed as IL-1 β): No appreciable difference

CS(=O)(=O)Nc1ccc(Oc2ccc(F)cc2)s1 [RWJ63556]
inhibition of leukocyte influx [4]: significant sustained inhibition
inhibition of prostaglandin synthesis [4]: significant sustained inhibition

CS(=O)(=O)Nc1ccc([N+](=O)[O-])cc1OC1CCCCC1 [NS-398]
glucose-stimulated insulin secretion (HIT cells): partially restored

CCCCC/C=C\C[C@@H](O)/C=C/C=C\C/C=C\CCCC(=O)O [12-HETE, 12-hydroxyeicosatetraenoic acid, reference compound]
increase in PGE2 relative to 15-HETE ([1]; 24 hours): 10 fold
PGE2 production in conditioned medium [1]: ~1250 pg/mL
increase in COX-2 mRNA expression (COX-2 mRNA): 3 fold
COX-2 protein stimulation compared to IL-1β (0.3 ng/ml) (COX-2 protein [2]): equipotent
increase in COX-2 protein (COX-2 protein [2]): 3 fold
COX-1 mRNA expression / gene transcription (COX-1 mRNA): No appreciable difference; also recorded: neither IL-1β,nor 12-HETE stimulated

N#CC(=Cc1ccc(O)c(O)c1)C(=O)OCC=Cc1ccccc1 [CDC, cinnamamyl-3,4-dihydroxy-α-cyanocinnamate]
IC50 (5-lipoxygenase): 3330 nM
inhibition of IL-1β induced PGE2 production ([1]; CDC 1 μM (1-10 μM)): completely inhibited; also recorded: statistically significant decrease; also recorded: statistically significant inhibition; also recorded: dose-dependent
IL-1β induced PGE2 production in presence of CDC ([1]; CDC 1 μM added 60 minutes before IL-1β, 24 hours): 169+5 pg/ml
IC50 (12-lipoxygenase): 63 nM
effect on IL-1β stimulated increase in COX-2 protein (COX-2 protein [3]; CDC 1 μM plus IL-1β): completely inhibited; also recorded: completely eliminated this response
effect on basal COX-2 protein levels (COX-2 protein [3]; CDC alone): did not appreciably affect
IC50 (15-lipoxygenase): 1890 nM

O=C(/C=C/c1ccc(O)c(O)c1)OCCc1ccccc1 [CAPE, caffeic acid phenethyl ester]
prostaglandin synthesis in rat carrageenan air pouch (prostaglandin synthesis): inhibited prostaglandin synthesis in a dose-dependent fashion
concentration inhibiting COX-2 gene transcription (COX-2 gene transcription): 35 to 70 µM

Source: US6469063B1, “Inhibition of inflammation via inhibition of COX-2 gene transcription” (City of Hope, priority 1999, dated 2002)
